# Test results taken from the supplement of paper PMC10307832.
# How the values were obtained:
# Test in all cases: relative viability (nuclei count vs DMSO), 5 days (fraction); higher = more cells survive
# A-427 = tested on: A-427
# In short: (§1)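 Relative viability divides the nuclei count in treated wells by that in vehicle wells. Lung cancer cell lines were seeded in 1536-well plates, dosed by pin tool the next day, and fixed and stained after 5 days in one step with final 0.05% Triton X-100, 1% formaldehyde and 1 ug/ml Hoechst. Dosing was a single drug or a fixed anchor-drug dose plus five library-drug doses (not always all listed) in √10 steps, and values are medians of duplicate plates imaged at 4×.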
# CAL-12T = tested on: CAL-12T
# In short: as §1
# COR-L 105 = tested on: COR-L 105
# In short: as §1
# EMC-BAC-2 = tested on: EMC-BAC-2
# In short: as §1
# HARA = tested on: HARA
# In short: as §1
# HCC-366 = tested on: HCC-366
# In short: as §1
# HCC-827 = tested on: HCC-827
# In short: as §1
# HOP-62 = tested on: HOP-62
# In short: as §1
# LCLC-103H = tested on: LCLC-103H
# In short: as §1
# NCI-H1395 = tested on: NCI-H1395
# In short: as §1
# NCI-H1437 = tested on: NCI-H1437
# In short: as §1
# NCI-H1755 = tested on: NCI-H1755
# In short: as §1
# NCI-H1792 = tested on: NCI-H1792
# In short: as §1
# NCI-H1915 = tested on: NCI-H1915
# In short: as §1
# NCI-H2009 = tested on: NCI-H2009
# In short: as §1
# NCI-H2228 = tested on: NCI-H2228
# In short: as §1
# NCI-H23 = tested on: NCI-H23
# In short: as §1
# NCI-H460 = tested on: NCI-H460
# In short: as §1
# NCI-H522 = tested on: NCI-H522
# In short: as §1
# NCI-H727 = tested on: NCI-H727
# In short: as §1
# SK-LU-1 = tested on: SK-LU-1
# In short: as §1
# SW 1573 = tested on: SW 1573
# In short: as §1
smiles,measurement,setting,value
COc1cc2nccc(Oc3ccc(NC(=O)Nc4cc(C)on4)c(Cl)c3)c2cc1OC [Tivozanib] + CC(=O)c1c(C)c2cnc(Nc3ccc(N4CCNCC4)cn3)nc2n(C2CCCC2)c1=O [Palbociclib] (partner 0.5 µM),relative viability,A-427; first compound 0.005 µM,0.51
same,relative viability,A-427; first compound 0.01581 µM,0.55
same,relative viability,A-427; first compound 0.05 µM,0.511
same,relative viability,A-427; first compound 0.1581 µM,0.531
same,relative viability,A-427; first compound 0.5 µM,0.476
same,relative viability,CAL-12T; first compound 0.005 µM,0.407
same,relative viability,CAL-12T; first compound 0.01581 µM,0.433
same,relative viability,CAL-12T; first compound 0.05 µM,0.465
same,relative viability,CAL-12T; first compound 0.1581 µM,0.224
same,relative viability,CAL-12T; first compound 0.5 µM,0.402
same,relative viability,COR-L 105; first compound 0.005 µM,0.411
same,relative viability,COR-L 105; first compound 0.01581 µM,0.436
same,relative viability,COR-L 105; first compound 0.05 µM,0.433
same,relative viability,COR-L 105; first compound 0.1581 µM,0.404
same,relative viability,COR-L 105; first compound 0.5 µM,0.415
same,relative viability,EMC-BAC-2; first compound 0.005 µM,0.524
same,relative viability,EMC-BAC-2; first compound 0.01581 µM,0.543
same,relative viability,EMC-BAC-2; first compound 0.05 µM,0.529
same,relative viability,EMC-BAC-2; first compound 0.1581 µM,0.521
same,relative viability,EMC-BAC-2; first compound 0.5 µM,0.494
same,relative viability,HARA; first compound 0.005 µM,0.297
same,relative viability,HARA; first compound 0.01581 µM,0.208
same,relative viability,HARA; first compound 0.05 µM,0.3
same,relative viability,HARA; first compound 0.1581 µM,0.245
same,relative viability,HARA; first compound 0.5 µM,0.272
same,relative viability,HCC-366; first compound 0.005 µM,0.394
same,relative viability,HCC-366; first compound 0.01581 µM,0.422
same,relative viability,HCC-366; first compound 0.05 µM,0.362
same,relative viability,HCC-366; first compound 0.1581 µM,0.343
same,relative viability,HCC-366; first compound 0.5 µM,0.322
same,relative viability,HCC-827; first compound 0.005 µM,0.498
same,relative viability,HCC-827; first compound 0.01581 µM,0.506
same,relative viability,HCC-827; first compound 0.05 µM,0.539
same,relative viability,HCC-827; first compound 0.1581 µM,0.448
same,relative viability,HCC-827; first compound 0.5 µM,0.412
same,relative viability,HOP-62; first compound 0.005 µM,0.499
same,relative viability,HOP-62; first compound 0.01581 µM,0.419
same,relative viability,HOP-62; first compound 0.05 µM,0.495
same,relative viability,HOP-62; first compound 0.1581 µM,0.438
same,relative viability,HOP-62; first compound 0.5 µM,0.397
same,relative viability,LCLC-103H; first compound 0.005 µM,0.452
same,relative viability,LCLC-103H; first compound 0.01581 µM,0.512
same,relative viability,LCLC-103H; first compound 0.05 µM,0.519
same,relative viability,LCLC-103H; first compound 0.1581 µM,0.551
same,relative viability,LCLC-103H; first compound 0.5 µM,0.471
same,relative viability,NCI-H1395; first compound 0.005 µM,0.581
same,relative viability,NCI-H1395; first compound 0.01581 µM,0.587
same,relative viability,NCI-H1395; first compound 0.05 µM,0.659
same,relative viability,NCI-H1395; first compound 0.1581 µM,0.55
same,relative viability,NCI-H1395; first compound 0.5 µM,0.509
same,relative viability,NCI-H1437; first compound 0.005 µM,0.364
same,relative viability,NCI-H1437; first compound 0.01581 µM,0.344
same,relative viability,NCI-H1437; first compound 0.05 µM,0.286
same,relative viability,NCI-H1437; first compound 0.1581 µM,0.368
same,relative viability,NCI-H1437; first compound 0.5 µM,0.26
same,relative viability,NCI-H1755; first compound 0.005 µM,0.437
same,relative viability,NCI-H1755; first compound 0.01581 µM,0.467
same,relative viability,NCI-H1755; first compound 0.05 µM,0.442
same,relative viability,NCI-H1755; first compound 0.1581 µM,0.421
same,relative viability,NCI-H1755; first compound 0.5 µM,0.403
same,relative viability,NCI-H1792; first compound 0.005 µM,0.686
same,relative viability,NCI-H1792; first compound 0.01581 µM,0.643
same,relative viability,NCI-H1792; first compound 0.05 µM,0.553
same,relative viability,NCI-H1792; first compound 0.1581 µM,0.698
same,relative viability,NCI-H1792; first compound 0.5 µM,0.747
same,relative viability,NCI-H1915; first compound 0.005 µM,0.537
same,relative viability,NCI-H1915; first compound 0.01581 µM,0.553
same,relative viability,NCI-H1915; first compound 0.05 µM,0.538
same,relative viability,NCI-H1915; first compound 0.1581 µM,0.484
same,relative viability,NCI-H1915; first compound 0.5 µM,0.503
same,relative viability,NCI-H2009; first compound 0.005 µM,0.212
same,relative viability,NCI-H2009; first compound 0.01581 µM,0.209
same,relative viability,NCI-H2009; first compound 0.05 µM,0.23
same,relative viability,NCI-H2009; first compound 0.1581 µM,0.109
same,relative viability,NCI-H2009; first compound 0.5 µM,0.119
same,relative viability,NCI-H2228; first compound 0.005 µM,0.688
same,relative viability,NCI-H2228; first compound 0.01581 µM,0.68
same,relative viability,NCI-H2228; first compound 0.05 µM,0.883
same,relative viability,NCI-H2228; first compound 0.1581 µM,0.321
same,relative viability,NCI-H2228; first compound 0.5 µM,0.643
same,relative viability,NCI-H23; first compound 0.005 µM,0.459
same,relative viability,NCI-H23; first compound 0.01581 µM,0.569
same,relative viability,NCI-H23; first compound 0.05 µM,0.488
same,relative viability,NCI-H23; first compound 0.5 µM,0.497
same,relative viability,NCI-H460; first compound 0.005 µM,0.147
same,relative viability,NCI-H460; first compound 0.01581 µM,0.196
same,relative viability,NCI-H460; first compound 0.05 µM,0.141
same,relative viability,NCI-H460; first compound 0.1581 µM,0.22
same,relative viability,NCI-H460; first compound 0.5 µM,0.209
same,relative viability,NCI-H522; first compound 0.005 µM,1
same,relative viability,NCI-H522; first compound 0.01581 µM,0.849
same,relative viability,NCI-H522; first compound 0.05 µM,0.889
same,relative viability,NCI-H522; first compound 0.1581 µM,0.894
same,relative viability,NCI-H522; first compound 0.5 µM,1.21
same,relative viability,NCI-H727; first compound 0.005 µM,0.659
same,relative viability,NCI-H727; first compound 0.01581 µM,0.659
same,relative viability,NCI-H727; first compound 0.05 µM,0.574
same,relative viability,NCI-H727; first compound 0.1581 µM,0.637
same,relative viability,NCI-H727; first compound 0.5 µM,0.7
same,relative viability,SK-LU-1; first compound 0.005 µM,0.372
same,relative viability,SK-LU-1; first compound 0.01581 µM,0.396
same,relative viability,SK-LU-1; first compound 0.05 µM,0.386
same,relative viability,SK-LU-1; first compound 0.1581 µM,0.367
same,relative viability,SK-LU-1; first compound 0.5 µM,0.37
same,relative viability,SW 1573; first compound 0.005 µM,0.344
same,relative viability,SW 1573; first compound 0.01581 µM,0.412
same,relative viability,SW 1573; first compound 0.05 µM,0.418
same,relative viability,SW 1573; first compound 0.1581 µM,0.391
same,relative viability,SW 1573; first compound 0.5 µM,0.344
